Laboratory results from patent US7163957B2, “3-(Cyclopenten-1-yl)-benzyl-or 3-(cyclopenten-1-yl)-heteroarylmethyl-amine derivatives and use thereof as medicines for treating schizophrenia” (Pierre Fabre Medicament, priority 2002, dated 2007).
Structures can show the parent of a compound that is named as a salt.

Legend:
D2 receptors [1] = experiment: Antagonist activity of the D2 receptors in vivo: inhibition of the behavior induced by methylphenidate; conditions: Rattus norvegicus, rats, oral route, read-out: Normalization ED50
From the text: 3—Evaluation of the antagonist activity of the D2 receptors in vivo.

D2 receptors [2] = biological target: D2 receptors (Homo sapiens, UniProt P14416); experiment: Affinity for the D2 receptors, displacement of (3H) YM-09151-2; format: binding; conditions: for Ki: displacement of (3H) YM-09151-2, mean of at least 3 experiments, read-out: D2 pKi (converted)
From the text: 1—Measurement of the affinity of the compounds of the invention for the D2 receptors.
The pKi values, (pKi=−log Ki), are given in the form of the mean±SEM of at least 3 experiments.

catalepsy = experiment: Cataleptigenic effects (catalepsy); format: in vivo; conditions: rats; for ED50: rat, in vivo, oral route; for cataleptigenic effects (in words): high doses (i.e. 40 mg/kg)
From the text: 4—Evaluation of the cataleptigenic effects of the compounds of the invention.

5-HT1A receptors = biological target: T1, 5-HT1A receptors (Homo sapiens, UniProt P08908); experiment: Affinity for the 5-HT1A receptors, displacement of [3H]8-OH-DPAT; format: binding; conditions: for Ki: displacement of [3H]8-OH-DPAT, mean of at least 3 experiments, read-out: 5-HT1A pKi (converted)
T1 sequence (P08908 1-422): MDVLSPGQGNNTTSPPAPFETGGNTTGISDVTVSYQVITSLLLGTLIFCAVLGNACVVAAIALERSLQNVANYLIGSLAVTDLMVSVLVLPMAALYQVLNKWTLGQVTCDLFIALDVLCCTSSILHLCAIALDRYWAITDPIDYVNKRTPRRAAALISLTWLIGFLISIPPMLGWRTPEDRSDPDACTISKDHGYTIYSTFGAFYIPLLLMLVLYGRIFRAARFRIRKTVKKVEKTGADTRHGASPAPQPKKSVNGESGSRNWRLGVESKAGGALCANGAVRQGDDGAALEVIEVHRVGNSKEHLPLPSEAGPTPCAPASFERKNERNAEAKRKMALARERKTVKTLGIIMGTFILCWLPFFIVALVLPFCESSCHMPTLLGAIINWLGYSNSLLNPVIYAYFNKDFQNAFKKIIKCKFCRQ
Description: 2—Measurement of the affinity of the compounds of the invention for the 5-HT1A receptors.
The affinity in vitro of the compounds of the invention for the receptors of the 5-HT1A subtype was determined by measuring the displacement of [^3H]8-OH-DPAT (TRK 850; 160-240 Ci/mmol).
The pKi values, (pKi =−log Ki), are given in the form of the mean±SEM of at least 3 experiments.

Sequence of D2 receptors (Homo sapiens, UniProt P14416) (P14416 whole entry): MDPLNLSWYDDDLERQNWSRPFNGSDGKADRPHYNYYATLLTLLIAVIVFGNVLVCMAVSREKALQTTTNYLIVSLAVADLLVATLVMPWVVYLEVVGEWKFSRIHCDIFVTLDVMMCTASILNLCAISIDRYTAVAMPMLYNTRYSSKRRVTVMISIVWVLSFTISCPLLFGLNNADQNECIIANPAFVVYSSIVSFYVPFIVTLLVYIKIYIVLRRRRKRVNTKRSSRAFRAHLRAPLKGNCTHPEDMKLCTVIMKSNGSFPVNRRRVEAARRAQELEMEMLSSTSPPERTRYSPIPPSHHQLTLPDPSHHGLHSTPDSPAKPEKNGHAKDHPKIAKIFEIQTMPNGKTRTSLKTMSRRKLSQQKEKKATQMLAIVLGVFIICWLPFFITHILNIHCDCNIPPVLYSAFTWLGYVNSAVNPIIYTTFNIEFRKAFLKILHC

Structure (SMILES)	melting point [°C]	ED50 (D2 receptors [1]) [mg/kg]	ED50 (catalepsy) [mg/kg]	affinity for the 5-HT1A receptors (in words) (5-HT1A receptors)	also measured
CC1(C)Cc2cccc(OCCNCc3cccc(C4=CCCC4)c3)c2O1 (as salt: fumarate) [Compound 1a, [2-(2,2-Dimethyl-2,3-dihydrobenzofuran-7-yloxy)ethyl]-(3-cyclopenten-1-ylbenzyl)amine]	146				
CC1(C)Cc2cccc(OCCNCc3cncc(C4=CCCC4)c3)c2O1 (as salt: fumarate) [Compound 1b, [2-(2,2-Dimethyl-2,3-dihydrobenzofuran-7-yl-oxy)ethyl]-(5-cyclopenten-1-ylpyridin-3-ylmethyl)amine]	141				
C1=C(c2cccc(CNCCOc3cccc4ccoc34)c2)CCC1 (as salt: fumarate) [Compound 1c, [2-(Benzofuran-7-yloxy)ethyl]-(3-cyclopenten-1-ylbenzyl)amine]	126				
Cc1cc2cccc(OCCNCc3cccc(C4=CCCC4)c3)c2o1 (as salt: fumarate) [Compound 1d, [2-(2-Methylbenzofuran-7-yloxy)ethyl]-(3-cyclopenten-1-ylbenzyl)amine]	133				
C1=C(c2cccc(CNCCOc3cccc4c3OCC4)c2)CCC1 (as salt: fumarate) [Compound 1e, [2-(2,3-Dihydrobenzofuran-7-yloxy)ethyl]-(3-cyclopenten-1-ylbenzyl)amine]	118				
CC1(C)Cc2cccc(OCCNCc3cccc(C4=C(F)CCC4)c3)c2O1 (as salt: fumarate) [Compound 1g, [2-(2,2-Dimethyl-2,3-dihydrobenzofuran-7-yl-oxy)ethyl]-[3-(2-fluorocyclopenten-1-yl)benzyl]amine]	145				
C1=C(c2cccc(CNCCOc3cccc4c3OC3(CC3)C4)c2)CCC1 (as salt: maleate) [Compound 1f]	180				
CC1(C)Cc2cccc(OCCNCc3cccc(C4=CCCC4)c3)c2O1 [Compound 1a, [2-(2,2-Dimethyl-2,3-dihydrobenzofuran-7-yloxy)ethyl]-(3-cyclopenten-1-ylbenzyl)amine]		1.3	> 40	high affinity	Ki (D2 receptors [2]): 0.316 nM; cataleptigenic effects (in words) (catalepsy): free of any cataleptigenic effects; Ki (5-HT1A receptors): 6.31 nM
C1=C(c2cccc(CNCCOc3cccc4c3OC3(CC3)C4)c2)CCC1 [Compound 1f]		0.63	> 40	high affinity	Ki (D2 receptors [2]): 0.631 nM; cataleptigenic effects (in words) (catalepsy): free of any cataleptigenic effects; Ki (5-HT1A receptors): 6.31 nM
Cc1nc2n(c(=O)c1CCN1CCC(c3noc4cc(F)ccc34)CC1)CCCC2 [Risperidone, risperidone, reference compound]		6.5		low affinity	affinity for the D2 receptors (in words) (D2 receptors [2]): good affinity
O=C(CCCN1CCC(O)(c2ccc(Cl)cc2)CC1)c1ccc(F)cc1 [haloperidol, reference compound]		0.46	0.92	low affinity	
CNc1cc(OC)c(C(=O)NC2CCN(Cc3ccccc3)C2C)cc1Cl (stereo not shown) [nemonapride, reference compound]		1.5	5	high affinity	
